Assay results published in patent US8648085B2, “1, 5-dihydro-pyrazolo (3, 4-D) pyrimidin-4-one derivatives and their use as PDE9A mudulators for the treatment of CNS disorders” (Boehringer Ingelheim International GmbH, priority 2007, dated 2014).

Assays:
PDE1C = biological target: T1, PDE1C (Homo sapiens, UniProt Q14123); assay: PDE enzymatic activity assay (SPA), PDE1C, cAMP as substrate; assay type: biochemical; settings: ratio IC50 PDE1C / IC50 PDE9A; for illustrative purposes
T1 construct: made in house; host or cells: SF9 insect cells (crude lysate used as enzyme source)
Protocol: (§1) The PDE enzymatic activity assays were run as SPA, in general according to the protocol of the manufacturer (Amersham Biosciences, product number: TRKQ 7100). As enzyme source, lysate (PBS with 1% Triton X-100 supplemented with protease inhibitors, cell debris removed by centrifugation at 13.000 rpm for 30 min) of SF 9 cell expressing the human PDE of interest was used. The total protein amount included in the assay varied upon infection and production efficacy of the SF9 cells and lay in the range of […].
(§2) In general, the assay conditions were as follows: • total assay volume: 40 μl • protein amount: 0.1-50 ng • substrate concentration (cGMP or cAMP): 20 nM; ˜1 mCi/l • incubation time: 60 min at room temperature • final DMSO concentration: 1%
(§3) The assays were run in 384-well format. The test reagents as well as the enzyme and the substrate were diluted in assay buffer. The assay buffer contained 50 mM Tris, 8.3 mM MgCl2, 1.7 mM EGTA, 0.1% BSA, 0.05% Tween 20; the pH of assay buffer was adjusted to 7.5. In case activity of PDE1C was analysed, 50 nM Calmodulin and 3 mM CaCl2 were included in the assay buffer. In case PDE9 activity was analyzed, the reaction was stopped by applying a PDE9 specific inhibitor (e.g. compounds according to WO2004/099210). PDE1C was analysed with cAMP as substrate, and PDE9 was analyzed with cGMP as substrate.
(§4) IC50 can be calculated in a conventional way, eventually with the help of GraphPadPrism or other suited software setting the positive control as 100 and the negative control as 0. For calculation of IC50 usually 8 dilutions of the test compound ([…]) are to be selected and tested following the aforementioned protocol.

PDE9A = PDE9A (Homo sapiens, UniProt O76083); assay: PDE enzymatic activity assay (SPA), PDE9A; assay type: biochemical; parameters: made in house; host or cells: SF9 insect cells (crude lysate used as enzyme source); settings: cGMP substrate, for illustrative purposes; for inhibition at 10 µM: 10 micromolar; for IC50: given as ranges
Protocol: as §1, §2, §3
Calculation of % Inhibition:
The activity of the positive control (minus the negative control=background) is set to 100% and activity in the presence of test compound is expressed relative to these 100%.
Within this setting, an inhibition above 100% might be possible due to the nature of the variation of the positive control within the assay, however, in this case the reported % inhibition had been adjusted to 100%.
as §4

Chain of PDE9A (O76083 whole entry): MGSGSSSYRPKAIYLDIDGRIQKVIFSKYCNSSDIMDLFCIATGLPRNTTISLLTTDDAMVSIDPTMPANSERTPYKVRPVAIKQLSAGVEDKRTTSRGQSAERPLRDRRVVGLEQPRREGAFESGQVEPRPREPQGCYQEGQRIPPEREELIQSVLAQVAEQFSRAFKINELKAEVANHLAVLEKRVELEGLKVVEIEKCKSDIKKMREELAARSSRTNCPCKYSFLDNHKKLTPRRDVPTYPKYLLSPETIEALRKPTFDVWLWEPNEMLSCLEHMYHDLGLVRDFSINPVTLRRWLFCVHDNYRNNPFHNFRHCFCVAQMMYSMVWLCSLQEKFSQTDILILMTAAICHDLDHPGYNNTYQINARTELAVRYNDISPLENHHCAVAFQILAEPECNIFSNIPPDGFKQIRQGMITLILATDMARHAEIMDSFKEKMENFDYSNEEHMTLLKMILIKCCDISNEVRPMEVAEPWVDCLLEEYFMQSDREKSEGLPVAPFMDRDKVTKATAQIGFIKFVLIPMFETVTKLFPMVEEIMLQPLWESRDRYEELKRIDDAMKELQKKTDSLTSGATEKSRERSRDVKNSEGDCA

| Selectivity = IC50 PDE 1C/IC50 PDE9A (both nanomolar) (PDE1C) | inhibition at 10 µM (PDE9A) | IC50 (PDE9A) | Compound |
| --- | --- | --- | --- |
| 39 | 99% | 10 to 500 nM | Cc1ccncc1-n1ncc2c(=O)[nH]c(Cc3ccccc3OC(F)(F)F)nc21 [Example 1, 1-(4-Methyl-pyridin-3-yl)-6-(2-tri-fluoromethoxy-benzyl)-1,5-dihydro-pyrazolo[3,4-d]pyrimidin-4-one] |
| 88 | 102% | 10 to 500 nM | COc1ccc(Cl)cc1-n1ncc2c(=O)[nH]c(Cc3ccccc3OC(F)(F)F)nc21 [Example 4, 1-(5-Chloro-2-methoxy-phenyl)-6-(2-trifluoromethoxy-benzyl)-1,5-dihydro-pyrazolo[3,4-d]pyrimidin-4-one] |
| 7 | 96% | 10 to 500 nM | O=c1[nH]c(Cc2ccccc2OC(F)(F)F)nc2c1cnn2-c1cc(F)ccc1Cl [Example 5, 1-(2-Chloro-5-fluoro-phenyl)-6-(2-trifluoromethoxy-benzyl)-1,5-dihydro-pyrazolo[3,4-d]pyrimidin-4-one] |
| 9 | 91% | 10 to 500 nM | O=c1[nH]c(Cc2ccccc2OC(F)(F)F)nc2c1cnn2-c1cc(F)ccc1Br [Example 7, 1-(2-Bromo-5-fluoro-phenyl)-6-(2-trifluoromethoxy-benzyl)-1,5-dihydro-pyrazolo[3,4-d]pyrimidin-4-one] |
| 21 | 93% | 10 to 500 nM | O=c1[nH]c(Cc2ccccc2OC(F)(F)F)nc2c1cnn2-c1cc(Cl)ccc1Br [Example 8, 1-(2-Bromo-5-chloro-phenyl)-6-(2-trifluoromethoxy-benzyl)-1,5-dihydro-pyrazolo[3,4-d]pyrimidin-4-one] |
| 6 | 90% | 10 to 500 nM | O=c1[nH]c(Cc2ccccc2OC(F)(F)F)nc2c1cnn2-c1ccc(F)cc1Br [Example 9, 1-(2-Bromo-4-fluoro-phenyl)-6-(2-trifluoromethoxy-benzyl)-1,5-dihydro-pyrazolo[3,4-d]pyrimidin-4-one] |
| 271 | 94% | 10 to 500 nM | Cc1ccc(Cl)cc1-n1ncc2c(=O)[nH]c(Cc3ccccc3OC(F)(F)F)nc21 [Example 15, 1-(5-Chloro-2-methyl-phenyl)-6-(2-trifluoromethoxy-benzyl)-1,5-dihydro-pyrazolo[3,4-d]pyrimidin-4-one] |
| 4 | 87% | 10 to 500 nM | CCOc1ccc(Cl)c(-n2ncc3c(=O)[nH]c(Cc4ccccc4OC(F)(F)F)nc32)c1 [Example 20, 1-(2-Chloro-5-ethoxy-phenyl)-6-(2-trifluoromethoxy-benzyl)-1,5-dihydro-pyrazolo[3,4-d]pyrimidin-4-one] |
| 93 | 91% | 10 to 500 nM | Cc1cc(F)c(F)cc1-n1ncc2c(=O)[nH]c(Cc3ccccc3OC(F)(F)F)nc21 [Example 21, 1-(4,5-Difluoro-2-methyl-phenyl)-6-(2-trifluoromethoxy-benzyl)-1,5-dihydro-pyrazolo[3,4-d]pyrimidin-4-one] |
| 14 | 98% | 10 to 500 nM | COc1ccc(Cl)c(-n2ncc3c(=O)[nH]c(Cc4ccccc4OC(F)(F)F)nc32)c1 [Example 22, 1-(2-Chloro-5-methoxy-phenyl)-6-(2-trifluoromethoxy-benzyl)-1,5-dihydro-pyrazolo[3,4-d]pyrimidin-4-one] |
| 49 | 87% | > 500 nM | Cc1cccc(Cl)c1-n1ncc2c(=O)[nH]c(Cc3ccccc3OC(F)(F)F)nc21 [Example 24, 1-(2-Chloro-6-methyl-phenyl)-6-(2-trifluoromethoxy-benzyl)-1,5-dihydro-pyrazolo[3,4-d]pyrimidin-4-one] |

The next lines start with the compound.

| Compound | Selectivity = IC50 PDE 1C/IC50 PDE9A (both nanomolar) (PDE1C) | inhibition at 10 µM (PDE9A) | IC50 (PDE9A) |
| --- | --- | --- | --- |
| Cc1ccccc1-n1ncc2c(=O)[nH]c(Cc3ccccc3OC(F)(F)F)nc21 [Example 2, 1-o-Tolyl-6-(2-trifluoromethoxy-benzyl)-1,5-dihydro-pyrazolo[3,4-d] pyrimidin-4-one] | 14 | 98% | 10 to 500 nM |
| Cc1ccc(Cl)c(-n2ncc3c(=O)[nH]c(Cc4ccccc4OC(F)(F)F)nc32)c1 [Example 3, 1-(2-Chloro-5-methyl-phenyl)-6-(2-trifluoromethoxy-benzyl)-1,5-dihydro-pyrazolo[3,4-d]pyrimidin-4-one] | 4 | 95% | 10 to 500 nM |
| O=c1[nH]c(Cc2ccccc2OC(F)(F)F)nc2c1cnn2-c1cc(Br)ccc1Cl [Example 6, 1-(5-Bromo-2-chloro-phenyl)-6-(2-trifluoromethoxy-benzyl)-1,5-dihydro-pyrazolo[3,4-d]pyrimidin-4-one] | 112 | 88% | 10 to 500 nM |
| Cc1ccc(Br)c(-n2ncc3c(=O)[nH]c(Cc4ccccc4OC(F)(F)F)nc32)c1 [Example 10, 1-(2-Bromo-5-methyl-phenyl)-6-(2-trifluoromethoxy-benzyl)-1,5-dihydro-pyrazolo[3,4-d]pyrimidin-4-one] | 7 | 88% | > 500 nM |
| O=c1[nH]c(Cc2ccccc2OC(F)(F)F)nc2c1cnn2-c1ccc(F)cc1 [Example 11, 1-(4-Fluoro-phenyl)-6-(2-trifluoromethoxy-benzyl)-1,5-dihydro-pyrazolo[3,4-d]pyrimidin-4-one] | 21 | 47% | > 500 nM |
| O=c1[nH]c(Cc2ccccc2OC(F)(F)F)nc2c1cnn2-c1ccc(F)cc1F [Example 12, 1-(2,4-Difluoro-phenyl)-6-(2-trifluoromethoxy-benzyl)-1,5-dihydro-pyrazolo[3,4-d]pyrimidin-4-one] | 8 | 102% | 10 to 500 nM |
| O=c1[nH]c(Cc2ccccc2OC(F)(F)F)nc2c1cnn2-c1ccc(F)cc1Cl [Example 13, 1-(2-Chloro-4-fluoro-phenyl)-6-(2-trifluoromethoxy-benzyl)-1,5-dihydro-pyrazolo[3,4-d]pyrimidin-4-one] | 10 | 96% | 10 to 500 nM |
| Cc1ccc(F)cc1-n1ncc2c(=O)[nH]c(Cc3ccccc3OC(F)(F)F)nc21 [Example 14, 1-(5-Fluoro-2-methyl-phenyl)-6-(2-trifluoromethoxy-benzyl)-1,5-dihydro-pyrazolo[3,4-d]pyrimidin-4-one] | 14 | 95% | 10 to 500 nM |
| O=c1[nH]c(Cc2ccccc2OC(F)(F)F)nc2c1cnn2-c1cc(Cl)ccc1Cl [Example 16, 1-(2,5-Dichloro-phenyl)-6-(2-trifluoromethoxy-benzyl)-1,5-dihydro-pyrazolo[3,4-d]pyrimidin-4-one] | 71 | 93% | 10 to 500 nM |
| Cc1cc(F)ccc1-n1ncc2c(=O)[nH]c(Cc3ccccc3OC(F)(F)F)nc21 [Example 17, 1-(4-Fluoro-2-methyl-phenyl)-6-(2-trifluoromethoxy-benzyl)-1,5-dihydro-pyrazolo[3,4-d]pyrimidin-4-one] | 9 | 98% | 10 to 500 nM |
| Cc1ccc(C)c(-n2ncc3c(=O)[nH]c(Cc4ccccc4OC(F)(F)F)nc32)c1 [Example 18, 1-(2,5-Dimethyl-phenyl)-6-(2-trifluoromethoxy-benzyl)-1,5-ihydro-pyrazolo[3,4-d]pyrimidin-4-one] | 28 | 86% | 10 to 500 nM |
| Cc1cccc(-n2ncc3c(=O)[nH]c(Cc4ccccc4OC(F)(F)F)nc32)c1C [Example 19, 1-(2,3-Dimethyl-phenyl)-6-(2-trifluoromethoxy-benzyl)-1,5-dihydro-pyrazolo[3,4-d] pyrimidin-4-one] | 5 | 74% | 10 to 500 nM |
| Cc1cc(-n2ncc3c(=O)[nH]c(Cc4ccccc4OC(F)(F)F)nc32)c(Cl)cc1F [Example 23, 1-(2-Chloro-4-fluoro-5-methyl-phenyl)-6-(2-trifluoromethoxy-benzyl)-1,5-dihydro-pyrazolo[3,4-d]pyrimidin-4-one] | 46 | 85% | > 500 nM |
